For the test, the target named is Dihydroorotate dehydrogenase (quinone), mitochondrial (Homo sapiens, UniProt Q02127). Kind of test: Enzyme Assay: The DHODH activity assay is a coupled enzyme assay in which oxidation of DHO and subsequent reduction of ubiquinone are stoichiometrically equivalent to the reduction of DCIP ([…]). The reduction of DCIP is accompanied by a loss of absorbance at 610 nm.Reagents Used:L-Dihydroorotic acid, Sigma, D7128, 2,6-Dichloroindophenol sodium salt hydrate, sigma, D1878 Dimethyl sulfoxide (DMSO), spectroscopic grade purchased from Spectrochem, cat no. 0704209, B. no.--3183650 Decylubiquinone, Sigma, D7911Preparation of Solutions/Reagents:Buffer Preparation: 50 mM tris HCl, 150 mM KCl, and pH 8.0, 0.8% triton.L-Dihydroorotic acid stock solution of 20 mM in buffer2,6-Dichloroindophenol Sodium salt hydrate stock solution of 20 mM in bufferDecylubiquinone stock solution of 20 mM in bufferDMSO used as vehicleProcedure:5 µL of Dimethyl sulfoxide or a compound of formula I in DMSO solution was added to the wells of a 96 well plate. Compounds of formula I were measured at 10 µM.

Structures are written as SMILES.

Dihydroorotate dehydrogenase (quinone), mitochondrial, sequence (Q02127 whole entry): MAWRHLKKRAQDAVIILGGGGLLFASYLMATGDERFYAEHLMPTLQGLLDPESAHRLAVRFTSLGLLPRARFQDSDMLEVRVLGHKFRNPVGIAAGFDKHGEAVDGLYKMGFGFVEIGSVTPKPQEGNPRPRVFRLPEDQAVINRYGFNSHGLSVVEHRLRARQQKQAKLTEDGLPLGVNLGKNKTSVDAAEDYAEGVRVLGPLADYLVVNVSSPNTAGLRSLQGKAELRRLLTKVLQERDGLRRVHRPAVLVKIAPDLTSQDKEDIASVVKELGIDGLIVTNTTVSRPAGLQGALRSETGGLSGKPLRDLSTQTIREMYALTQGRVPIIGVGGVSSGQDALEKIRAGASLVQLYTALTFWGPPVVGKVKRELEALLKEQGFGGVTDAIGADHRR

Usually IC50 stands for the midpoint of a concentration-inhibition curve. As to `Cc1cc(C(=O)O)c2nc(C#Cc3ccccc3)[nH]c2c1`, the 50% inhibitory concentration (IC50) worked out at 11.4 µM.

Source of the values: ChEMBL document CHEMBL3638649, “Dihydroorotate dehydrogenase inhibitors” (2015).
